Reference: patent publication US12302903B2, “Oxazepinone derivative, agricultural/horticultural insecticide containing the same, and method for using the same” (priority 2019, dated 2025)

These compounds were tested on Small Brown Planthopper (Laodelphax Striatellus) (assay: Test of insecticidal efficacy against Small Brown Planthopper (rice seedling dip)). Conditions: 192 h, read-out: corrected insect mortality judgement against small brown planthopper.
Type: in vivo
Description: Test Example 2. Test of Insecticidal Efficacy Against Small Brown Planthopper (Laodelphax Striatellus)
The compound or salt thereof expressed by General Formula (1) according to the present invention was dispersed in water and the dispersion was diluted to 50 ppm in the form of a reagent, after which rice plants raised from seeds (variety: Nipponbare) were soaked in the reagent for 30 seconds and dried under wind, and then placed in glass test tubes, each of which was inoculated with 10 third-instar larvae of small brown planthoppers and sealed with cotton, and eight days after the inoculation, the number of live insects and that of dead insects were examined and the corrected insect mortality was calculated based on the formula below, and judgement was made according to the criteria below.
[formula] [formula] Criteria A—Corrected insect mortality: 100% B—Corrected insect mortality: 99% to 90% C—Corrected insect mortality: 89% to 80% D—Corrected insect mortality: 79% to 50%
For `COCN1C(=O)c2nn(-c3cccnc3)cc2Oc2ncccc21` [Compound No. 1-1, 9-(methoxymethyl)-2-(pyridin-3-yl)-2H-pyrazolo[3,4-f]pyrido[2,3-b][1,4]oxazepine-10(9H)-one], the mortality at 50 ppm was 100%.

The compounds below were run on zebrafish embryo (assay: Teratogenicity test using zebrafish embryo). Conditions: zebrafish embryos exposed from 6 hours after fertilization, cultured at 28° C. for five days, 0.1% dimethyl sulfoxide.
Type: in vivo
Description: Test Example 4. Teratogenicity Test Using Zebrafish Embryo
Fertilized eggs obtained by mating zebrafish were cultured in a medium (0.3× Danieau's solution) at 28° C. until 6 hours after fertilization. Thereafter, the embryo was transferred to a medium into which the compound expressed by General Formula (1) according to the present invention dissolved in dimethyl sulfoxide was added, and cultured at 28° C. for five days. The concentration of dimethyl sulfoxide in the medium was 0.1%. 12 embryos were tested in each test concentration of the present invention.
Observation sites: notochord, tail, somite, eye, otolith, jaw, heart, blood vessel, abdomen, fin, etc.
From the results of these observations, the presence or absence of teratogenicity risk of the compound expressed by General Formula (1) according to the present invention and six compounds (Compound Nos. 4-10, 1-67, 1-1, 8-125, and 8-22, and a compound encompassed by the claims of Patent Literature 1 (Comparative Compound 4)) disclosed in the aforementioned Patent Literature 1 as the comparative compounds was determined.
It is noted that the teratogenicity test using zebrafish embryo is known to have good high predictivity to the teratogenicity test using the mammals (Reference Literature: Reproductive Toxicology 2012, (33), 155-164).
`COCN1C(=O)c2nn(-c3cccnc3)cc2Oc2c(F)cccc21` [Comparative Compound 6] was tested, and the Teratogenicity risk was “Yes”.
`COCN1C(=O)c2nn(-c3cccnc3)cc2Oc2cc(OC(F)(F)F)ccc21` [Comparative Compound 4] was tested, and the Teratogenicity risk was “Yes”.
In the case of `COCN1C(=O)c2nn(-c3cccnc3)cc2Oc2ccccc21` [Comparative Compound 2], the Teratogenicity risk is reported as “Yes”.
`CN1C(=O)c2nn(-c3cccnc3)cc2Oc2cc(OC(F)(F)F)ccc21` [Comparative Compound 5] was tested, and the Teratogenicity risk was “Yes”.
In the case of `CN1C(=O)c2nn(-c3cccnc3)cc2Oc2ncc(C(F)(F)F)cc21` [Comparative Compound 1], the Teratogenicity risk is reported as “Yes”.
With `O=C1Nc2ccccc2Oc2cn(-c3cccnc3)nc21` [Comparative Compound 3] the Teratogenicity risk was “Yes”.
In the case of `COCN1C(=O)c2nn(-c3cccnc3)cc2Oc2ncccc21` [Compound No. 1-1, 9-(methoxymethyl)-2-(pyridin-3-yl)-2H-pyrazolo[3,4-f]pyrido[2,3-b][1,4]oxazepine-10(9H)-one], the Teratogenicity risk is reported as “No”.
